In data set [1] the target is hr 5-HTT (Homo sapiens, UniProt P31645). Kind of data set: receptor profile (Table S4). The data set is classed as binding.
Data set [2] concerns the target T1, hr CCKa (Homo sapiens, UniProt P32238).
T1 sequence (P32238 1-428): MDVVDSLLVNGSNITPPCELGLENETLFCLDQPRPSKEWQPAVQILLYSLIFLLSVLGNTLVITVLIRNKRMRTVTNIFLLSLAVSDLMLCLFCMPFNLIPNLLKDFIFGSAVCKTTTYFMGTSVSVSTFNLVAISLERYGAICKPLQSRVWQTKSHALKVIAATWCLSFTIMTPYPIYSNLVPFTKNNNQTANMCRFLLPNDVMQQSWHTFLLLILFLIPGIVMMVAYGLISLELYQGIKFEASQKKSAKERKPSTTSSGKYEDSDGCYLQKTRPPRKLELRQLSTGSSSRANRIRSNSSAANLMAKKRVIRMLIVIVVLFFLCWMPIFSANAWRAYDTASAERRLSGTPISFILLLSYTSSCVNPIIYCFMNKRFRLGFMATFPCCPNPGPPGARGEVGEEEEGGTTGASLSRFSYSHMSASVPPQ
Kind of data set: receptor profile (Table S4). It counts as binding.

Data set [3] deals with L. donovani. Nature of the data set: murine model of visceral leishmaniasis, liver parasite burden by qPCR. It counts as in vivo. The note with it: mice infected with L. donovani; 1 mg/kg b.i.d. PO, 8 days.
Source text: Formulation of study drugs for in vivo efficacy experiments. LXE408 administered to mice during efficacy experiments was formulated as a suspension in distilled water containing 0.5% methylcellulose and 0.5% Tween-80 (mouse model of visceral leishmaniasis) or hydroxypropylcellulose and Tween-80 (mouse models of cutaneous leishmaniasis). Miltefosine was formulated as a solution in distilled water containing 0.5% methylcellulose and 0.5% Tween-80.
Mouse model of visceral leishmaniasis. Female BALB/c mice (6-8 weeks old) were infected by tail vein injection with 4x 107 L. donovani MHOM/ET/67/HU3 splenic amastigotes. Seven days after infection, animals were orally dosed for 8 days with vehicle (0.5% MC/0.5% Tween-80 in distilled water), miltefosine (12 mg/kg once-daily), or LXE408 (twice-daily). At the end of treatment, liver samples were collected and L. donovani parasite burdens were quantified by qPCR as follows. L. donovani genomic DNA was extracted from drug-treated mice livers using the DNeasy Blood and Tissue Kit (Qiagen). Two types of DNA were quantified in parallel using the TaqMan assays for L. donovani major surface
Data set [4] addresses T2, hr Alpha2B (Homo sapiens, UniProt P18089).
T2 sequence (P18089 1-450): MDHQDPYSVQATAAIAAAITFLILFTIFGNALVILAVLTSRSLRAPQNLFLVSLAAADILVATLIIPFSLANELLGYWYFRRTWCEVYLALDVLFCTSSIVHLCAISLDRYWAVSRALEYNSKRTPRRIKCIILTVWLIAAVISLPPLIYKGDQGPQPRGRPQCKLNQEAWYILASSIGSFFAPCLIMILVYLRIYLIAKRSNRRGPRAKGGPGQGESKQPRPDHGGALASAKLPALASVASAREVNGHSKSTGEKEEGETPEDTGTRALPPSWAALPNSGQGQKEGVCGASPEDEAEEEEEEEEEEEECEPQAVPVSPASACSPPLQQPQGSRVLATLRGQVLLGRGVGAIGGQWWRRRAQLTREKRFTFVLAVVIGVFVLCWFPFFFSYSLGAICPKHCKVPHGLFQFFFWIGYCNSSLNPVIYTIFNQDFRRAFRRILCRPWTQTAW
Nature of the data set: receptor profile (Table S4). The data set is classed as binding.

The target of data set [5] is hr BSEP (Homo sapiens, UniProt O95342). Kind of data set: receptor profile (Table S4), second BSEP line. The note with it: hr BSEP, second line.
Data set [6] has as its target BSEP (Homo sapiens, UniProt O95342). Nature of the data set: receptor profile (Table S4), second BSEP line. The note with it: human.
The nature of data set [7]: pharmacokinetics in cynomolgus monkey. The note with it: male cynomolgus monkey. The data set is classed as in vivo. As for the experimental part: In Vivo Intravenous PK Study in Non-human Primates. The IV PK study in non-human primates was carried out at Covance research facility in Greenfield, Indiana. The research facility is accredited by AAALAC (Association for Assessment and Accreditation of Laboratory Animal Care). The male Cynomolgus monkeys were approximately 4.5 years of age and weighed 4.2 to 5.0 kg. 1 was administered […]
75% polyethylene glycol (PEG300) as described in the earlier section. Doses were administered once by intravenous injection via the saphenous vein at a dose of 0.3 mg/kg with a dosing volume of 0.1 ml/kg.
Clinical observations and food consumption determinations were performed on all animals. Blood samples for PK analysis were collected from all animals via the femoral vein approximately 0.083, 0.25, […]
In Vivo Oral PK Study in Non-human Primates. The PO PK study in non-human primates was conducted at a Novartis facility using Non-naïve male Cynomolgus monkeys weighing 3.8 to 4.0 kg. The monkeys were fasted overnight and fed 2 hours post-dose. 1 was formulated in a suspension of 0.5% […]
gavaged with 5 mL/kg of the suspension for a total dose of 10 mg/kg. The gavage tubing was flushed with 5 mL of water to ensure the gavage tubing was cleared of the formulation. Blood samples for PK analysis were collected from all animals via the saphenous veins approximately 0.25, 0.5, 1, 2, 4, 7, 24, 48, and 72 hours post-dose.

Data set [8] concerns the target T3, hr PPARg ag (Homo sapiens, UniProt P37231).
T3 sequence (P37231 1-505): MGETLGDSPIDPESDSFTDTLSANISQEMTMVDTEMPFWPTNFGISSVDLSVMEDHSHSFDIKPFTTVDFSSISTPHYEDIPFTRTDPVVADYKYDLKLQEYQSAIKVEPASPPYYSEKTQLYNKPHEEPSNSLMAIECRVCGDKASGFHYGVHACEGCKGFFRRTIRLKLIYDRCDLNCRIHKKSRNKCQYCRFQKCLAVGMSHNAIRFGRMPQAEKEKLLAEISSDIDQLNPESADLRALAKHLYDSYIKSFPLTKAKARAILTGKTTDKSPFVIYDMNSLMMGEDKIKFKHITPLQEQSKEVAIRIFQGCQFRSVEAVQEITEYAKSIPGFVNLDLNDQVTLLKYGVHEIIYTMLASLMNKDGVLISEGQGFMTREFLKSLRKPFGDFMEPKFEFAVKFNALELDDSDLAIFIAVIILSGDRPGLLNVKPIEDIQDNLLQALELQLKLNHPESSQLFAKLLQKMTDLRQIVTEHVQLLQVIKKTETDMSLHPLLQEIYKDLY
Nature of the data set: receptor profile (Table S4). The data set is classed as biochemical.

Structures are written as SMILES.

Results on one molecule are retold here after publication PMC7549094 (Journal of Medicinal Chemistry, 2020).

hr 5-HTT, sequence (P31645 whole entry): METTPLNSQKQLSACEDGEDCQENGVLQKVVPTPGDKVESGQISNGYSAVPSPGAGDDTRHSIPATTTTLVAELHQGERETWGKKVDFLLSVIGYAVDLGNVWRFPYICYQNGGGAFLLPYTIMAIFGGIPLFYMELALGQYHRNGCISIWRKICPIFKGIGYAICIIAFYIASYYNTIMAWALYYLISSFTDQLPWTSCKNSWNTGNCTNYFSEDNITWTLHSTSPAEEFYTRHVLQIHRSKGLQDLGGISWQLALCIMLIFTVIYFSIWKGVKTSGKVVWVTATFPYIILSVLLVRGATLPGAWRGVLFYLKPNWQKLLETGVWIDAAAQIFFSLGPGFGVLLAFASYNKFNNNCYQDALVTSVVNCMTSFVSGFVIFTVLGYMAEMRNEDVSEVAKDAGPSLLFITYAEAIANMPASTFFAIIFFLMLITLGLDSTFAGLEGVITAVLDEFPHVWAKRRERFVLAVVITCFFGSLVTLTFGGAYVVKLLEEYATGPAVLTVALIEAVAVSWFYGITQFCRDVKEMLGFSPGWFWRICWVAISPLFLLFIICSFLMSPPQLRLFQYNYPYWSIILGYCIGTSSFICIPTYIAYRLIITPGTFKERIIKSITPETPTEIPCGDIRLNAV
BSEP, sequence (O95342 whole entry): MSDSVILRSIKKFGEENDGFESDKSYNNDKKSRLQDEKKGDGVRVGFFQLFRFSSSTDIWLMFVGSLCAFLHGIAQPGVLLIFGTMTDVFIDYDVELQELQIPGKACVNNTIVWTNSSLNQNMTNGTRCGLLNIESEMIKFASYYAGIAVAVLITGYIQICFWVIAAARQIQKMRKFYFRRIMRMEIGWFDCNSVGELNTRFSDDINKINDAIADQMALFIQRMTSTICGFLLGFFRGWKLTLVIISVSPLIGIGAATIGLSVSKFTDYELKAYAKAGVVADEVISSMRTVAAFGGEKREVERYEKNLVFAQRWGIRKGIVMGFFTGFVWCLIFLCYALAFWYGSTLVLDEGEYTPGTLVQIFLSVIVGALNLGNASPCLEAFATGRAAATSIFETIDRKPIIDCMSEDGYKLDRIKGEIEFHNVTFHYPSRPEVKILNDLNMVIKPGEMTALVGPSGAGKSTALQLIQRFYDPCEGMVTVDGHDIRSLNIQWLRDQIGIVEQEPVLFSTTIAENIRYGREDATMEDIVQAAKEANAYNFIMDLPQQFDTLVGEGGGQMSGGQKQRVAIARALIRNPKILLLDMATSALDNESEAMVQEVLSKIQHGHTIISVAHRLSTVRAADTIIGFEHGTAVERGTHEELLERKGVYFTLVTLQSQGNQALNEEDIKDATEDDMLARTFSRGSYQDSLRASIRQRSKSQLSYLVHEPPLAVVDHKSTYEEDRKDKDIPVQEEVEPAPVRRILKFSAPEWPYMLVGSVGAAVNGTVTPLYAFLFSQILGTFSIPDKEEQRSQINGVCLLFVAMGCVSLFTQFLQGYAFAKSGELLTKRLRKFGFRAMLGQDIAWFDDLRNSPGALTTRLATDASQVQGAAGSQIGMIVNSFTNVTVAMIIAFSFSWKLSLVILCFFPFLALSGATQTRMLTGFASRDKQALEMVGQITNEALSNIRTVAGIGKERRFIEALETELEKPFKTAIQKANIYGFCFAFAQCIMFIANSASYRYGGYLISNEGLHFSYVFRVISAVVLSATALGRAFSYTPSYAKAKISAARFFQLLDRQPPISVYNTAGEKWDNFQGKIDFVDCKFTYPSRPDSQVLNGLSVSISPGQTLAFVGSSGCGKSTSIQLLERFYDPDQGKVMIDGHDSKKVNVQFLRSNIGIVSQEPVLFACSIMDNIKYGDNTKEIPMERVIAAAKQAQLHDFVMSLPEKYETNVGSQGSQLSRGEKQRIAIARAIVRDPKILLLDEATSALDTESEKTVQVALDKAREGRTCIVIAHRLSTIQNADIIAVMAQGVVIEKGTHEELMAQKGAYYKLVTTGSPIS
hr BSEP, sequence (O95342 whole entry): as above

For the molecule `Cc1nc(C)c(C(=O)Nc2ccc(F)c(-c3nc4ncc(-c5ncccc5C)cn4n3)c2)o1` [compound 1, N-(4-Fluoro-3-(6-(3-methylpyridin-2-yl)-[1,2,4]triazolo[1,5-a]pyrimidin-2-yl)phenyl)-2,4-dimethyloxazole-5-carboxamide], the EC50/IC50 was greater than 30 µM in data set [1] (hr 5-HTT); greater than 30 µM in data set [2] (hr CCKa); greater than 30 µM in data set [4] (hr Alpha2B); 17 µM in data set [5]; greater than 30 µM in data set [8] (hr PPARg ag). The inhibition at 10 µM in data set [1] (read-out: % inh/act @ 10 µM) came out at 17%; in data set [2] (read-out: % inh/act @ 10 µM) it was 12%; in data set [4] (read-out: % inh/act @ 10 µM) it was 13%; in data set [6], 40%; in data set [8] (read-out: % inh/act @ 10 µM), 4%. The inhibition at 30 µM in data set [1] (read-out: % inh/act @ 30 µM) turned out to be 12%; in data set [2] (read-out: % inh/act @ 30 µM), 50%; in data set [4] (read-out: % inh/act @ 30 µM) it was 16%; in data set [6] it was 56%; in data set [8] (read-out: % inh/act @ 30 µM) it was 5%. Besides, the “reduction of parasite burden in the liver” value in data set [3] was 95%. Further, the MRT in data set [7] (in vivo, 0.3 mg/kg IV) turned out to be 9.7 h. In data set [7] (in vivo, 0.3 mg/kg IV and 10 mg/kg PO), this molecule showed a bioavailability of 27%. Further, the clearance in data set [7] (in vivo, 0.3 mg/kg IV, fumarate salt) stood at 0.9 mL/min/kg. Also, the half-life in data set [7] (in vivo, 0.3 mg/kg IV, read-out: T1/2 IV (converted)) is 9.7 h. Moreover, the Vd in data set [7] (in vivo, 0.3 mg/kg IV, read-out: Vss) is 0.5 L/kg. Besides, the “DN AUC PO” value in data set [7] (10 mg/kg PO, dose-normalized) turned out to be 12 µM·h. In addition, in data set [7] (10 mg/kg PO, dose-normalized), the “DN Cmax PO” value worked out at 1000 nM.
